In the supplement of paper PMC6045584:

Compound: C#Cc1cccc(Nc2ncnc3cc(OCCOC)c(OCCOC)cc23)c1 [ERLOTINIB]
Test: area under dose-response curve of surviving fraction (unscaled, Aref=0) (surviving fraction x log10(nM)); higher = more resistant
Conditions: exposure time: 5 days; dose range 0.5-1000 nM
Procedure, shortened: (§1)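 Inhibitor was applied to tumour cell lines at eight concentrations (0.5 to 1000 nM) for five days in 384-well plates. Luminescence from CellTiter-Glo, scaled to DMSO-only wells, gave surviving fractions in three screens per line, and these were fitted by 3-parameter logistic regression with the drc R package. The area under the curve is an unscaled activity area. Aref was 0, and dose was on a log10 scale.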

Test System | area under dose-response curve
22RV1 PROSTATE | 3.31
CADOES1 SOFT TISSUE | 2.74
CAL51 BREAST | 3.36
CAL120 BREAST | 3.02
CASKI CERVIX | 2.27
CHLA90 AUTONOMIC GANGLIA | 3.07
COLO320DM LARGE INTESTINE | 3.34
DU4475 BREAST | 3.44
H23 LUNG | 2.52
HCC70 BREAST | 3.46
HCC78 LUNG | 2.89
HCC1954 BREAST | 2.94
HCT15 LARGE INTESTINE | 3.48
HOS BONE | 3.4
HSSYII SYNOVIAL | 3.37
JIMT1 BREAST | 3.16
KPD BONE | 3.57

Test System | area under dose-response curve
MCF7 BREAST | 3.32
MDAMB134 BREAST | 3.65
MDAMB231 BREAST | 3.4
MDAMB361 BREAST | 2.9
MDAMB436 BREAST | 3.36
MDAMB468 BREAST | 3.23
MFM223 BREAST | 4.35
MHM BONE | 3.44
NY BONE | 3.37
OS25HAL BONE | 3.48
PCI30 HEADNECK | 2.96
SG43 HEADNECK | 2.23
SNU475 LIVER | 3.21
SYO1 SYNOVIAL | 3.34
T47D BREAST | 3.73
U2OS BONE | 3.46

Compound: CCC1=C[C@@H]2CN(C1)Cc1c([nH]c3ccccc13)[C@@](C(=O)OC)(c1cc3c(cc1OC)N(C)[C@H]1[C@@](O)(C(=O)OC)[C@H](OC(C)=O)[C@]4(CC)C=CCN5CC[C@]31[C@@H]54)C2 [VINORELBINE]
Test: as above
Conditions: exposure time: 5 days; dose range 0.5-1000 nM
Procedure, shortened: as §1

Test System | area under dose-response curve
22RV1 PROSTATE | 1.53
CADOES1 SOFT TISSUE | 2.63
CAL51 BREAST | 1.28
CAL120 BREAST | 1.59
CASKI CERVIX | 1.27
CHLA90 AUTONOMIC GANGLIA | 1.69
COLO320DM LARGE INTESTINE | 3.2
DU4475 BREAST | 1.96
H23 LUNG | 1.74
HCC70 BREAST | 1.66
HCC78 LUNG | 1.48
HCC1954 BREAST | 1.3
HCT15 LARGE INTESTINE | 2.64
HOS BONE | 1.78
HSSYII SYNOVIAL | 0.855
JIMT1 BREAST | 1.24
KPD BONE | 2.29

Test System | area under dose-response curve
MCF7 BREAST | 2.07
MDAMB134 BREAST | 2.38
MDAMB231 BREAST | 1.77
MDAMB361 BREAST | 2.09
MDAMB436 BREAST | 1.99
MDAMB468 BREAST | 1.33
MFM223 BREAST | 1.45
MHM BONE | 2.21
NY BONE | 1.35
OS25HAL BONE | 1.8
PCI30 HEADNECK | 1.21
SG43 HEADNECK | 1.93
SNU475 LIVER | 2.17
SYO1 SYNOVIAL | 1.3
T47D BREAST | 1.99
U2OS BONE | 2.14

Compound: CCCS(=O)(=O)Nc1ccc(F)c(C(=O)c2c[nH]c3ncc(Cl)cc23)c1F [PLX-4720]
Test: as above
Conditions: exposure time: 5 days; dose range 0.5-1000 nM
Procedure, shortened: as §1

Test System | area under dose-response curve
22RV1 PROSTATE | 3.09
CADOES1 SOFT TISSUE | 3.09
CAL51 BREAST | 3.19
CAL120 BREAST | 2.96
CASKI CERVIX | 3
CHLA90 AUTONOMIC GANGLIA | 2.66
COLO320DM LARGE INTESTINE | 3.03
DU4475 BREAST | 1.92
H23 LUNG | 3.19
HCC70 BREAST | 3.36
HCC78 LUNG | 3.25
HCC1954 BREAST | 1.55
HCT15 LARGE INTESTINE | 2.63
HOS BONE | 3.19
HSSYII SYNOVIAL | 2.43
JIMT1 BREAST | 3.05
KPD BONE | 3.19

Test System | area under dose-response curve
MCF7 BREAST | 2.81
MDAMB134 BREAST | 2.51
MDAMB231 BREAST | 3.25
MDAMB361 BREAST | 2.92
MDAMB436 BREAST | 2.86
MDAMB468 BREAST | 3.1
MFM223 BREAST | 2.87
MHM BONE | 3.27
NY BONE | 3.09
OS25HAL BONE | 3.14
PCI30 HEADNECK | 3.34
SG43 HEADNECK | 3.93
SNU475 LIVER | 2.43
SYO1 SYNOVIAL | 2.17
T47D BREAST | 3.2
U2OS BONE | 3.23

Compound: CCN(CC)CCNC(=O)c1c(C)[nH]c(/C=C2\C(=O)Nc3ccc(F)cc32)c1C [SUNITINIB]
Test: as above
Conditions: exposure time: 5 days; dose range 0.5-1000 nM
Procedure, shortened: as §1

Test System | area under dose-response curve
22RV1 PROSTATE | 3.06
CADOES1 SOFT TISSUE | 3.22
CAL51 BREAST | 2.99
CAL120 BREAST | 2.74
CASKI CERVIX | 2.3
CHLA90 AUTONOMIC GANGLIA | 2.21
COLO320DM LARGE INTESTINE | 2.59
DU4475 BREAST | 2.1
H23 LUNG | 2.86
HCC70 BREAST | 3.4
HCC78 LUNG | 2.96
HCC1954 BREAST | 1.44
HCT15 LARGE INTESTINE | 2.37
HOS BONE | 3.1
HSSYII SYNOVIAL | 1.93
JIMT1 BREAST | 2.96
KPD BONE | 3.08

Test System | area under dose-response curve
MCF7 BREAST | 2.56
MDAMB134 BREAST | 2.75
MDAMB231 BREAST | 3.4
MDAMB361 BREAST | 2.37
MDAMB436 BREAST | 2.56
MDAMB468 BREAST | 3.17
MFM223 BREAST | 2.38
MHM BONE | 3.15
NY BONE | 2.99
OS25HAL BONE | 3.07
PCI30 HEADNECK | 3.77
SG43 HEADNECK | 3.53
SNU475 LIVER | 2.27
SYO1 SYNOVIAL | 1.69
T47D BREAST | 3.18
U2OS BONE | 2.94

Compound: CN(Cc1cnc2nc(N)nc(N)c2n1)c1ccc(C(=O)N[C@@H](CCC(=O)O)C(=O)O)cc1 [METHOTREXATE]
Test: as above
Conditions: exposure time: 5 days; dose range 0.5-1000 nM
Procedure, shortened: as §1

Test System | area under dose-response curve
22RV1 PROSTATE | 2.21
CADOES1 SOFT TISSUE | 1.82
CAL51 BREAST | 1.91
CAL120 BREAST | 1.67
CASKI CERVIX | 2.23
CHLA90 AUTONOMIC GANGLIA | 3.53
COLO320DM LARGE INTESTINE | 1.92
DU4475 BREAST | 3.28
H23 LUNG | 1.75
HCC70 BREAST | 3
HCC78 LUNG | 2.26
HCC1954 BREAST | 3.57
HCT15 LARGE INTESTINE | 1.59
HOS BONE | 1.32
HSSYII SYNOVIAL | 2.96
JIMT1 BREAST | 1.69

Test System | area under dose-response curve
KPD BONE | 3.55
MCF7 BREAST | 2.23
MDAMB134 BREAST | 3.13
MDAMB231 BREAST | 3.12
MDAMB361 BREAST | 2.76
MDAMB436 BREAST | 2.65
MDAMB468 BREAST | 2
MFM223 BREAST | 4
MHM BONE | 2.88
NY BONE | 2.49
OS25HAL BONE | 1.93
SG43 HEADNECK | 2.93
SNU475 LIVER | 3
SYO1 SYNOVIAL | 1.91
T47D BREAST | 2.28
U2OS BONE | 2.4

Compound: CO[C@H]1C[C@@H]2CC[C@@H](C)[C@@](O)(O2)C(=O)C(=O)N2CCCC[C@H]2C(=O)O[C@H]([C@H](C)C[C@@H]2CC[C@@H](OCCO)[C@H](OC)C2)CC(=O)[C@H](C)/C=C(\C)[C@@H](O)[C@@H](OC)C(=O)[C@H](C)C[C@H](C)/C=C/C=C/C=C/1C [EVEROLIMUS]
Test: as above
Conditions: exposure time: 5 days; dose range 0.5-1000 nM
Procedure, shortened: as §1

Test System | area under dose-response curve
22RV1 PROSTATE | 1.48
CADOES1 SOFT TISSUE | 1.49
CAL51 BREAST | 1.23
CAL120 BREAST | 1.62
CHLA90 AUTONOMIC GANGLIA | 1.36
COLO320DM LARGE INTESTINE | 2.62
DU4475 BREAST | 0.518
H23 LUNG | 1.76
HCC70 BREAST | 1.89
HCC78 LUNG | 1.75
HCC1954 BREAST | 1.2
HCT15 LARGE INTESTINE | 1.86
HOS BONE | 2.56
HSSYII SYNOVIAL | 1.79
JIMT1 BREAST | 1.88
KPD BONE | 1.44

Test System | area under dose-response curve
MCF7 BREAST | 1.74
MDAMB134 BREAST | 2.21
MDAMB231 BREAST | 2.01
MDAMB361 BREAST | 2.12
MDAMB436 BREAST | 2
MDAMB468 BREAST | 1.93
MFM223 BREAST | 2.56
MHM BONE | 2.37
NY BONE | 2.33
OS25HAL BONE | 2.13
PCI30 HEADNECK | 1.71
SG43 HEADNECK | 3.01
SNU475 LIVER | 1.26
SYO1 SYNOVIAL | 1.81
T47D BREAST | 2.24
U2OS BONE | 2.39

Compound: COc1cc(CCc2cc(NC(=O)c3ccc(N4CC(C)NC(C)C4)cc3)n[nH]2)cc(OC)c1 [AZD4547]
Test: as above
Conditions: exposure time: 5 days; dose range 0.5-1000 nM
Procedure, shortened: as §1

Test System | area under dose-response curve
22RV1 PROSTATE | 3.43
CADOES1 SOFT TISSUE | 3.23
CAL51 BREAST | 2.67
CAL120 BREAST | 2.59
CASKI CERVIX | 3.17
CHLA90 AUTONOMIC GANGLIA | 2.77
COLO320DM LARGE INTESTINE | 3.59
DU4475 BREAST | 3.5
H23 LUNG | 3.37
HCC70 BREAST | 3.63
HCC78 LUNG | 3.56
HCC1954 BREAST | 3.05
HCT15 LARGE INTESTINE | 3.52
HOS BONE | 3.24
HSSYII SYNOVIAL | 1.51
